Laboratory results as given in paper PMC10830309, “Inhibition of Pancreatic Lipase by Flavonoid Derivatives: In Vitro and In Silico Investigations” (Advances in Pharmacological and Pharmaceutical Sciences, 2024).
Read-outs that look alike come from different tables or passages of the source.

Key:
[1] = molecular target: T1, Porcine pancreatic lipase, type II (Sus scrofa, UniProt P00591); assay: Pancreatic lipase inhibition assay (spectrophotometric, p-NPP substrate); format: biochemical
T1 construct: purchased Merck Millipore / Sigma-Aldrich L-3126
T1 sequence (P00591 1-450): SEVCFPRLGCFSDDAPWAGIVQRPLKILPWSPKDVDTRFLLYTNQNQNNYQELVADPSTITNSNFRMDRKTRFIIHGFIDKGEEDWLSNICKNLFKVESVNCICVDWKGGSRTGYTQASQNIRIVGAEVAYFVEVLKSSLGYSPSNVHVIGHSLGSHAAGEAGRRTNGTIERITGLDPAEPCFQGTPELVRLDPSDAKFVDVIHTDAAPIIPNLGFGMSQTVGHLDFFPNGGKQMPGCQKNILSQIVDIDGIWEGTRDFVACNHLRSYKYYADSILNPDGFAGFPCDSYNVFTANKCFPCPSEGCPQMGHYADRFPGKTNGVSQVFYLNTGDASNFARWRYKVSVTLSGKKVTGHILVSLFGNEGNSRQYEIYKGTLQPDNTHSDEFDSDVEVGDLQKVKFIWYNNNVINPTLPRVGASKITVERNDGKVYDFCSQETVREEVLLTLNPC
Experimental: Following the experimental conditions described in the previous study [28], the assay was performed as follows: each sample solution, composed of 50 mM Tris-HCl buffer at pH 8.0, tested compound, and 10 mg/ml pancreatic lipase enzyme, was sequentially added. The resulting mixture was thoroughly mixed and incubated for 10 minutes at 37°C. Subsequently, the p-NPP substrate solution was added and mixed well. The mixture was then further incubated for 7 minutes at 37°C. The absorbance of the solution was measured at 405 nm. For the control solution, the same procedure was followed, replacing the tested compound with 10% DMSO. The blank solution was prepared with no enzyme added.
The percentage of pancreatic lipase inhibition (I%) was calculated using the following equation:(1) I%=∆A0−∆A/A0×100.
Here, ∆A0 represents the absorbance difference between the control and the blank, ∆A represents the absorbance difference between the sample and the blank, and A0 represents the absorbance of the control.
A linear regression equation was constructed to establish the correlation between the logarithm of the concentration (µM) of the tested substances and the percentage of pancreatic lipase inhibition. From this equation, the IC50 value, which indicates the concentration of the compound required for 50% inhibition, was determined.

[2] = molecular target: T1, Porcine pancreatic lipase, type II; assay: Enzymatic inhibition kinetic analysis (Michealis–Menten and Lineweaver–Burk plots); format: biochemical; details: for Mode of enzyme inhibition: Michealis–Menten and Lineweaver–Burk plots; for Vmax in the presence of inhibitor: p-NPP 12.5-200 μM, from Michealis–Menten plots
Experimental: Ten semisynthetic flavonoid derivatives, 2 flavanones and 8 flavones (Figure 1), reported in the previous works were used in this study.
The substrate p-NPP was examined at five distinct concentrations ranging from 12.5 μM to 200 μM. The flavonoid derivative was assessed for its lipase inhibition capacity over time at concentrations of 15 μM and 30 μM. Simultaneously, a negative control sample without the inhibitor was utilized for comparison. […] Inhibition constants (Ki) and maximum velocity (Vmax) were derived from the Michealis–Menten plots, and the mode of enzyme inhibition was elucidated through the Lineweaver–Burk plots. All parameters and graphical representations were calculated and generated using GraphPad Prism 8.4.3 software.

[3] = set-up: method as in PMID 11261530; details: dietary contexts, clinical use; cited from earlier work
[4] = p-NPP substrate, 50 mM Tris-HCl pH 8.0, 37°C, absorbance 405 nm, read-out: IC50 for pancreatic lipase

SMILES	IC50 [1, 4]	IC50 [1]	also measured
COc1cc2oc(-c3ccccc3)cc(=O)c2c(O)c1OC [F03]	> 500 µM		
C=CCOc1cc2oc(-c3ccccc3)cc(=O)c2c(O)c1OCC=C [F05]		341 ± 24.1 µM	
CCOc1cc2oc(-c3ccccc3)cc(=O)c2c(O)c1OCC [F04]		> 500 µM	
COc1cc(O)c2c(c1)OC(c1ccc(O)cc1)CC2=O (stereo not shown) [F01, 5-hydroxy-2-(4-hydroxyphenyl)-7-methoxychroman-4-one]	17.7 ± 1.43 µM		Mode of enzyme inhibition [2]: competitive; Vmax in the presence of inhibitor [2]: 0.03272 ΔA·min^−1; Ki ([2]; read-out: Inhibition constant (Ki)): 7.16 µM
CCC(=O)Oc1cc2oc(-c3ccccc3)cc(=O)c2c(OC(=O)CC)c1OC(=O)CC [F07]		> 500 µM	
COc1cc(OC)c2c(=O)cc(-c3ccc(OC)c(OC)c3)oc2c1 [F08]		270 ± 14.6 µM	
COc1cc(O)c2c(=O)cc(-c3ccc(OC)c(OC)c3)oc2c1 [F09]	465 ± 11.8 µM		
CC(=O)Oc1cc2oc(-c3ccccc3)cc(=O)c2c(OC(C)=O)c1OC(C)=O [F06]		> 500 µM	
COc1ccc(C2CC(=O)c3c(O)cc(OC)cc3O2)cc1 (stereo not shown) [F02]	76.2 ± 3.22 µM		
CCCCCCCCCCC[C@@H](C[C@@H]1OC(=O)[C@H]1CCCCCC)OC(=O)[C@H](CC(C)C)NC=O [Orlistat, reference compound]			Mode of enzyme inhibition [2]: competitive; Vmax in the presence of inhibitor [2]: 0.03295 ΔA·min^−1; Reduction of fat absorption [3]: approximately 30%
CCOc1cc(O)c2c(=O)cc(-c3ccc(OC)c(OCC)c3)oc2c1 [F10]		> 500 µM	
